Earlier results on 24 molecules are cited in patent publication US12569575B2, “Radiopaque particle compositions and uses thereof” (GUSTAVE ROUSSY TRANSFERT, priority 2021, dated 2026).

In brackets after ≈: the same amount, converted by molar mass. Structures can show the parent of a compound that is named as a salt. Where two headings read alike, the source gives them in different places.

The conditions of the data set: for Solubility in DMSO: solvent DMSO.

Turning to `Cc1nc(Nc2ncc(C(=O)Nc3c(C)cccc3Cl)s2)cc(N2CCN(CCO)CC2)n1` [Dasatinib], the “Solubility in DMSO” value is 98 mg/mL (≈ 201 mM).

Turning to `COc1cc2nccc(Oc3ccc(NC(=O)C4(C(=O)Nc5ccc(F)cc5)CC4)cc3)c2cc1OC` [Cabozantinib malate], the “Solubility in DMSO” value is reported as 18 mg/mL.

As to `CNC(=O)c1cc(Oc2ccc(NC(=O)Nc3ccc(Cl)c(C(F)(F)F)c3)c(F)c2)ccn1` [Regorafenib], the “Solubility in DMSO” value was 97 mg/mL (≈ 201 mM).

On to `C#Cc1cccc(Nc2ncnc3cc(OCCOC)c(OCCOC)cc23)c1` [Erlotinib HCl], for which the “Solubility in DMSO” value is listed as 20 mg/mL.

Turning to `COc1cc2nccc(Oc3ccc(NC(=O)NC4CC4)c(Cl)c3)c2cc1C(N)=O` [Levatinib mesylate], the “Solubility in DMSO” value was 9 mg/mL.

In the case of `CNC(=O)c1ccccc1Sc1ccc2c(/C=C/c3ccccn3)n[nH]c2c1` [Axitinib], the “Solubility in DMSO” value is given as 77 mg/mL (≈ 199 mM).

Turning to `C[C@]12O[C@H](C[C@]1(O)CO)n1c3ccccc3c3c4c(c5c6ccccc6n2c5c31)CNC4=O` [Lestaurtinib], the “Solubility in DMSO” value was 44 mg/mL (≈ 100 mM).

On to `COc1cc2ncnc(Nc3ccc(F)c(Cl)c3)c2cc1OCCCN1CCOCC1` [Gefitinib], for which the “Solubility in DMSO” value was 20 mg/mL (≈ 44.8 mM).

`CNC(=O)c1cc(Oc2ccc(NC(=O)Nc3ccc(Cl)c(C(F)(F)F)c3)cc2)ccn1` [Sorafenib]: the “Solubility in DMSO” value is given as 92 mg/mL (≈ 198 mM).

With `CS(=O)(=O)CCNCc1ccc(-c2ccc3ncnc(Nc4ccc(OCc5cccc(F)c5)c(Cl)c4)c3c2)o1.Cc1ccc(S(=O)(=O)O)cc1.Cc1ccc(S(=O)(=O)O)cc1` [Lapatinib toluene-sulfonate], the “Solubility in DMSO” value is listed as 200 mg/mL.

`CCN(CC)CCNC(=O)c1c(C)[nH]c(/C=C2\C(=O)Nc3ccc(F)cc32)c1C` [Sunitinib]: the “Solubility in DMSO” value is 100 mg/mL (≈ 251 mM). The “Solubility in Water” value (in citrate buffer) is 2 mg/mL (≈ 5.02 mM).

Turning to `Cc1cn(-c2cc(NC(=O)c3ccc(C)c(Nc4nccc(-c5cccnc5)n4)c3)cc(C(F)(F)F)c2)cn1` [Nilotinib], the “Solubility in DMSO” value was 50 mg/mL (≈ 94.4 mM).

In the case of `COc1cc2c(Nc3ccc(Br)cc3F)ncnc2cc1OCC1CCN(C)CC1` [Vandetanib], the “Solubility in DMSO” value was 30 mg/mL (≈ 63.1 mM). For the setting “in pH 6.5”, the “Solubility in Water” value was 5 mg/mL (≈ 10.5 mM).

For the molecule `Cc1ccc(NC(=O)c2ccc(CN3CCN(C)CC3)cc2)cc1Nc1nc(-c2cccnc2)cs1` [Masitinib], the “Solubility in DMSO” value is greater than 95 mg/mL. In addition, the “Solubility in Water” value (solvent water) is listed as less than 1.2 mg/mL.

For the molecule `C=CC(=O)Nc1cc2c(Nc3ccc(F)c(Cl)c3)ncnc2cc1OCCCN1CCOCC1` [Canertinib diHCl], the “Solubility in DMSO” value is given as greater than 5.6 mg/mL. Besides, the “Solubility in Water” value (solvent water) was 10 mg/mL.

Turning to `Cc1ccc(Nc2nccc(N(C)c3ccc4c(C)n(C)nc4c3)n2)cc1S(N)(=O)=O` [Pazopanib], the “Solubility in DMSO” value is given as 95 mg/mL (≈ 217 mM).

As for `COc1cccc2c1C(=O)c1c(O)c3c(c(O)c1C2=O)C[C@@](O)(C(=O)CO)C[C@@H]3O[C@H]1C[C@H](N)[C@@H](O)[C@H](C)O1` [Epirubicin HCl], the “Solubility in DMSO” value is 10 mg/mL. Further, the “Solubility in Water” value (solvent water) is 10 mg/mL.

Take `COc1cccc2c1C(=O)c1c(O)c3c(c(O)c1C2=O)C[C@@](O)(C(=O)CO)C[C@@H]3O[C@H]1C[C@H](N)[C@H](O)[C@H](C)O1` [Doxorubicin HCl]: the “Solubility in DMSO” value is reported as 100 mg/mL.

For the molecule `Clc1ccc(Nc2nnc(Cc3ccncc3)c3ccccc23)cc1` [Vatalanib diHCl], the “Solubility in DMSO” value is given as 85 mg/mL. For the same molecule, the “Solubility in Water” value (solvent water) is on record as 10 mg/mL.

For `Nc1ccn([C@@H]2O[C@H](CO)[C@@H](O)C2(F)F)c(=O)n1` [Gemcitabine], the “Solubility in DMSO” value was 5 mg/mL (≈ 19 mM). In addition, under “solvent water”, the “Solubility in Water” value is listed as 25 mg/mL (≈ 95 mM).

In the case of `CN1CCN(c2ccc3nc(-c4c(N)c5c(F)cccc5[nH]c4=O)[nH]c3c2)CC1` [Dovitinib], the “Solubility in DMSO” value is given as 40 mg/mL (≈ 102 mM).

Consider `COc1cc(Nc2c(C#N)cnc3cc(OCCCN4CCN(C)CC4)c(OC)cc23)c(Cl)cc1Cl` [Bosutinib], for which the “Solubility in DMSO” value is 100 mg/mL (≈ 189 mM).

For the molecule `COc1cc2nc(N3CCN(C(=O)C4CCCO4)CC3)nc(N)c2cc1OC` (centres unmarked) [Terazosin], for the setting “solvent water”, the “Solubility in Water” value is on record as 20 mg/mL (≈ 51.6 mM).

Consider `CC(=O)[C@]1(O)Cc2c(O)c3c(c(O)c2[C@@H](O[C@H]2C[C@H](N)[C@H](O)[C@H](C)O2)C1)C(=O)c1ccccc1C3=O` [Idarubicin HCl], for which the “Solubility in DMSO” value was 10 mg/mL. Also, the “Solubility in Water” value (solvent water) is on record as 1 mg/mL.
